pIC50: −log10 of the molar value. Where two headings read alike, the source gives them in different places. One block for each molecule: values may come before it.
What was measured:
HuCC-T1 cell line = experiment: Cell TitreGlo cell viability, HuCC-T1 cholangiocarcinoma cells; type: cell-based, human; conditions: for pIC50: Homo sapiens
Description: (§1) Various cholangiocarcinoma (CCA) cell lines were used for this drug screening.
(§2) For panobinostat as single substance treatment seven cholangiocarcinoma cell lines were used. Panobinostat was then tested in combination with 23 other drugs on four cholangiocarcinoma cell lines. A single concentration of the combination drug was added based on a previously determined IC20 value for the combination drug tested alone on each of the four cell lines.
(§3) The viability data for each plate were normalized to the average of eight replicates of DMSO at 0.1% and seven replicates of Benzethonium Chloride (BzCl) at 100 uM. BzCl serves as a cell killing control that accounts for background signal from dead cells in the CTG luminescence assay. Raw luminescence data were normalized according to the following equation: […]
(§4) The normalized data for each dose response curve were then fit using the function drm from the R package drc. This function uses a four parameter log-logistic curve to fit the dose response data, resulting in values for curve minimum, maximum, IC50, and slope. In the case where a log-logistic curve could not be fit to the data, a logistic curve was used instead.

KMBC cell line = experiment: Cell TitreGlo cell viability, KMBC cholangiocarcinoma cells; type: cell-based; conditions: single substance treatment, cell viability 48 h post drug addition
Description: as §1
(§5) For panobinostat as single substance treatment seven cholangiocarcinoma cell lines were used. Panobinostat was then tested in combination with 23 other drugs on four cholangiocarcinoma cell lines. A single concentration of the combination drug was added based on a previously determined IC20 value for the combination drug tested alone on each of the four cell lines. The cell line TFK-1 was insensitive to some tested drugs.

[1] = system: normal cholangiocytes, cell line H69 (CVCL_8121); conditions: read-out: H69 cell line Mono, panobinostat alone
Description: The effects of various cytotoxic agents on the toxicity of panobinostat in normal cholangiocytes was examined. The cell line H69 (CVCL_8121) was used in experimental procedures described above to determine the IC50 value for panobinostat (the primary drug) on these cells when used in combination with cytotoxic agents (secondary drug) added to the cells at their IC20 concentrations.
The larger difference the more toxic the combination.

TFK-1 cell line = experiment: Cell TitreGlo cell viability, TFK-1 cholangiocarcinoma cells; type: cell-based, human; conditions: for Delta IC50 absolute value: IC50 panobinostat alone minus IC50 panobinostat + secondary drug, positive = potentiation
Description: as §1, §2, §3, §4

KMCH-1 cell line = experiment: Cell TitreGlo cell viability, KMCH-1 combined cholangio- and hepatocarcinoma cells; type: cell-based; conditions: single substance treatment, cell viability 48 h post drug addition
Description: as §1, §5

CC-LP-1 cell line = experiment: Cell TitreGlo cell viability, CC-LP-1 cholangiocarcinoma cells; type: cell-based; conditions: Homo sapiens, single substance treatment, cell viability 48 h post drug addition
Description: as §1, §5

CC-SW-1 cell line = experiment: Cell TitreGlo cell viability, CC-SW-1 cholangiocarcinoma cells; type: cell-based, human; conditions: for pIC50: Homo sapiens
Description: as §1, §2, §3, §4

EGI-1 cell line = experiment: Cell TitreGlo cell viability, EGI-1 cholangiocarcinoma cells; type: cell-based, human; conditions: for Delta IC50 absolute value: IC50 panobinostat alone minus IC50 panobinostat + secondary drug, positive = potentiation
Description: as §1, §2, §3, §4

[2] = Homo sapiens, 48 h, single substance treatment, TFK-1, cell viability 48 h post drug addition, read-out: IC50
[3] = single substance treatment, CC-SW-1, cell viability 48 h post drug addition, read-out: IC50

pIC50 (HuCC-T1 cell line; HuCCT-1, panobinostat alone, read-out: HuCCT-1 cell line Mono): 7.37 | pIC50 (HuCC-T1 cell line; HuCCT-1, single substance treatment, HuCC-T1, cell viability 48 h post drug addition, read-out: IC50): 7.05 | pIC50 (KMBC cell line): 7.06 | pIC50 (TFK-1 cell line; [2]): 7.15 | pIC50 (TFK-1 cell line; Homo sapiens, panobinostat alone, read-out: TFK-1 cell line Mono): 7.29 | pIC50 (TFK-1 cell line; single substance treatment, TFK-1, cell viability 48 h post drug addition, read-out: IC50): 7.02 | pIC50 (KMCH-1 cell line): 7.00 | pIC50 (CC-LP-1 cell line): 7.09 | pIC50 (CC-SW-1 cell line; panobinostat alone, read-out: CC-SW-1 cell line Mono): 7.74 | pIC50 (CC-SW-1 cell line; [3]): 7.92 | pIC50 (EGI-1 cell line; Homo sapiens, EGI-1, panobinostat alone, read-out: EGI-1 cell line Mono): 7.20 | pIC50 (EGI-1 cell line; single substance treatment, EGI-1, cell viability 48 h post drug addition, listed as panobinostat, read-out: IC50): 7.00 | pIC50 (EGI-1 cell line; single substance treatment, EGI-1, cell viability 48 h post drug addition, read-out: IC50): 7.44
Structure (SMILES): Cc1[nH]c2ccccc2c1CCNCc1ccc(/C=C/C(=O)NO)cc1 [Panobinostat, (E)-N-hydroxy-3-[4-[[2-(2-methyl-1H-indol-3-yl)ethylamino]methyl]phenyl]prop-2-enamide]
Therapeutic index Mono (HuCC-T1 cell line; IC50 in H69 normal cells / IC50 in HuCCT-1, panobinostat alone): 0.9 | pIC50 [1]: 7.25 | Therapeutic index Mono (TFK-1 cell line; IC50 in H69 normal cells / IC50 in TFK-1, panobinostat alone): 1.1 | Therapeutic index Mono (CC-SW-1 cell line; IC50 in H69 normal cells / IC50 in CC-SW-1, panobinostat alone): 3.1 | Therapeutic index Mono (EGI-1 cell line; IC50 in H69 normal cells / IC50 in EGI-1, panobinostat alone): 0.9

pIC50 (TFK-1 cell line; [2]): 6.43 | Delta IC50 absolute value (TFK-1 cell line; TFK-1): 22.3 nM | pIC50 (CC-SW-1 cell line; [3]): 7.27 | Delta IC50 absolute value (EGI-1 cell line; EGI-1): 33.1 nM
Structure (SMILES): CC[C@@]1(O)C(=O)OCc2c1cc1n(c2=O)Cc2cc3c(CN(C)C)c(O)ccc3nc2-1 [Topotecan, 9-[(dimethylamino)methyl]-10-hydroxy-(45)-camptothecin]
Therapeutic index Combination (HuCC-T1 cell line; IC50 in H69 normal cells / IC50 in HuCCT-1, panobinostat + secondary drug at IC20): 1.5 | Therapeutic index Combination (TFK-1 cell line; IC50 in H69 normal cells / IC50 in TFK-1, panobinostat + secondary drug at IC20): 2.9 | Therapeutic index Combination (CC-SW-1 cell line; IC50 in H69 normal cells / IC50 in CC-SW-1, panobinostat + secondary drug at IC20): 5.1 | Therapeutic index Combination (EGI-1 cell line; IC50 in H69 normal cells / IC50 in EGI-1, panobinostat + secondary drug at IC20): 2.8

Delta IC50 absolute value (TFK-1 cell line; TFK-1): 18.9 nM | Delta IC50 absolute value (CC-SW-1 cell line; CC-SW-1, IC50 panobinostat alone minus IC50 panobinostat + secondary drug, positive = potentiation): 11.3 nM | Delta IC50 (%) (CC-SW-1 cell line; CC-SW-1, relative change of panobinostat IC50 with secondary drug): 62% | Delta IC50 absolute value (EGI-1 cell line; EGI-1): 29.4 nM
Structure (SMILES): CC(=O)Nc1cccc(-n2c(=O)n(C3CC3)c(=O)c3c(Nc4ccc(I)cc4F)n(C)c(=O)c(C)c32)c1 [Trametinib]
effect on cell viability as single substance treatment (HuCC-T1 cell line; HuCCT-1, 0.1-1000 nM, 48 h): only minor efficacy | IC44 (HuCC-T1 cell line; HuCCT-1, single substance, dose used instead of IC20): 8.8 nM | effect on cell viability as single substance treatment (TFK-1 cell line; TFK-1, 0.1-1000 nM, 48 h): only minor efficacy
